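Test compounds were applied to cells in 96-well plates for 48 hours at 5 doses. The concentration for full growth arrest is given as TGI.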

Test systems include OVCAR-5 ovarian; TK-10 renal; COLO 205 colon; NCI/ADR-RES ovarian; BT-549 breast; MDA-MB-231 breast; SK-OV-3 ovarian; OVCAR-8 ovarian; CAKI-1 renal; 786-0 renal; A498 renal.
Experiment in all cases: growth of human tumour cells (NCI), 48 h

As to `NC(Cc1ccccc1)(C(=O)O)C(=O)O`, the TGI with OVCAR-5 ovarian, in the experiment on TK-10 renal, with COLO 205 colon, in the experiment with NCI/ADR-RES ovarian, in the experiment on BT-549 breast and with MDA-MB-231 breast was more than 100 µM throughout. In addition, the TGI with SK-OV-3 ovarian, in the experiment with OVCAR-8 ovarian, in the experiment on CAKI-1 renal, with 786-0 renal and with A498 renal was more than 100 µM in each case.

With `COc1cc2cc(C(=O)N3CC(CCl)c4ccccc43)[nH]c2c(OC)c1OC` (configuration not stated), the TGI in the experiment on OVCAR-5 ovarian, in the experiment on TK-10 renal, in the experiment with COLO 205 colon, in the experiment on NCI/ADR-RES ovarian, with BT-549 breast and in the experiment with MDA-MB-231 breast was more than 100 µM in each case. Besides, the TGI in the experiment with SK-OV-3 ovarian, in the experiment on OVCAR-8 ovarian, with CAKI-1 renal, with 786-0 renal and in the experiment with A498 renal was more than 100 µM in each case.

Regarding `COc1cc2c(cc1OC)C(N)CC2=O` (configuration not stated), the TGI in the experiment with OVCAR-5 ovarian, with TK-10 renal, with COLO 205 colon, in the experiment on NCI/ADR-RES ovarian, in the experiment with BT-549 breast and in the experiment on MDA-MB-231 breast was more than 100 µM throughout. In addition, the TGI in the experiment on SK-OV-3 ovarian, in the experiment on OVCAR-8 ovarian, in the experiment with CAKI-1 renal, in the experiment with 786-0 renal and with A498 renal was more than 100 µM throughout.

On to `N#CC(Cc1ccccc1Br)N(CCC1=CCCCC1)C(c1ccccc1)c1ccccc1` (configuration not stated), for which the TGI in the experiment with OVCAR-5 ovarian, in the experiment with TK-10 renal, in the experiment on COLO 205 colon, in the experiment with NCI/ADR-RES ovarian, in the experiment with BT-549 breast and in the experiment with MDA-MB-231 breast was more than 100 µM each time. Moreover, the TGI in the experiment on SK-OV-3 ovarian, with OVCAR-8 ovarian, in the experiment with CAKI-1 renal, in the experiment with 786-0 renal and in the experiment with A498 renal was more than 100 µM in each case.

On to `CCOC(=O)/C=C1\c2ccccc2C(=O)N1CC(=O)OCC`, for which the TGI in the experiment on OVCAR-5 ovarian, with TK-10 renal, in the experiment on COLO 205 colon, in the experiment on NCI/ADR-RES ovarian, in the experiment with BT-549 breast and in the experiment on MDA-MB-231 breast was more than 100 µM throughout. Moreover, the TGI in the experiment on SK-OV-3 ovarian, in the experiment with OVCAR-8 ovarian, in the experiment with CAKI-1 renal, in the experiment on 786-0 renal and in the experiment on A498 renal was more than 100 µM throughout.

On to `CCOC(=O)/C=C(/C(=O)OCC)n1ccc(=O)n(/C(=C/C(=O)OCC)C(=O)OCC)c1=O`, for which the TGI worked out at 31.2 µM with OVCAR-5 ovarian; 17.6 µM with TK-10 renal; 3.79 µM in the experiment on COLO 205 colon; 55.3 µM with NCI/ADR-RES ovarian; 30.2 µM with BT-549 breast; 31.9 µM with MDA-MB-231 breast. The TGI in the experiment on SK-OV-3 ovarian was 43.7 µM; with OVCAR-8 ovarian, 23.2 µM; with CAKI-1 renal, 3.23 µM; in the experiment with 786-0 renal it was 5.86 µM; in the experiment with A498 renal, 38.8 µM.

On to `C[C@]12[C@@H]3CC[C@H]1[C@@H](OC(=O)Nc1cc([N+](=O)[O-])cc([N+](=O)[O-])c1)C(=O)N2CC3`, for which the TGI in the experiment on OVCAR-5 ovarian, in the experiment with TK-10 renal, in the experiment on COLO 205 colon, in the experiment on NCI/ADR-RES ovarian, with BT-549 breast and with MDA-MB-231 breast was more than 100 µM each time. In addition, the TGI with SK-OV-3 ovarian, in the experiment with OVCAR-8 ovarian, with CAKI-1 renal, in the experiment with 786-0 renal and with A498 renal was more than 100 µM each time.

On to `C=C1C(=O)O[C@H]2[C@H]1CC(=O)/C(C)=C/CC[C@@]1(C)O[C@@H]21`, for which the TGI with OVCAR-5 ovarian stood at 6.87 µM; in the experiment with TK-10 renal it was 2.65 µM; in the experiment on COLO 205 colon it was 0.708 µM; with NCI/ADR-RES ovarian, 10.8 µM; in the experiment with BT-549 breast, 2 µM; with MDA-MB-231 breast, 3.5 µM. The TGI in the experiment with SK-OV-3 ovarian worked out at 25.9 µM; in the experiment on OVCAR-8 ovarian, 7.47 µM; with CAKI-1 renal it was 1.28 µM; in the experiment on 786-0 renal, 1.53 µM; in the experiment on A498 renal, 3.6 µM.

With `CN1CCC23c4c5ccc(O)c4OC2c2[nH]c4ccccc4c2CC3(O)C1C5` (configuration not stated), the TGI with OVCAR-5 ovarian was more than 100 µM; in the experiment with TK-10 renal it was 43.5 µM; with COLO 205 colon it was 33.1 µM; in the experiment with NCI/ADR-RES ovarian, more than 100 µM; in the experiment with BT-549 breast it was more than 100 µM; in the experiment with MDA-MB-231 breast, 86.5 µM. Further, the TGI was more than 100 µM with SK-OV-3 ovarian; more than 100 µM with OVCAR-8 ovarian; more than 100 µM in the experiment on CAKI-1 renal; 39.6 µM in the experiment on 786-0 renal; 38 µM in the experiment on A498 renal.

Consider `C=C1CN(Cc2ccccc2)[C@@H]2CCCCC[C@H](C#N)[C@H]12`, for which the TGI in the experiment with OVCAR-5 ovarian, in the experiment with TK-10 renal, with COLO 205 colon, with NCI/ADR-RES ovarian, in the experiment on BT-549 breast and in the experiment on MDA-MB-231 breast was more than 100 µM in each case. The TGI with SK-OV-3 ovarian, in the experiment with OVCAR-8 ovarian, in the experiment with CAKI-1 renal, with 786-0 renal and in the experiment on A498 renal was more than 100 µM in each case.

Consider `COc1cc2c(cc1OCc1ccccc1)NC(=S)[C@@H]1CCCN1C2=S`, for which the TGI in the experiment on OVCAR-5 ovarian, in the experiment with TK-10 renal, in the experiment with COLO 205 colon, in the experiment with NCI/ADR-RES ovarian, in the experiment on BT-549 breast and in the experiment on MDA-MB-231 breast was more than 100 µM throughout. Also, the TGI in the experiment with SK-OV-3 ovarian, with OVCAR-8 ovarian, in the experiment with CAKI-1 renal, in the experiment on 786-0 renal and in the experiment on A498 renal was more than 100 µM each time.

For the compound `O=C(c1cccc(C(=O)c2ccc3c4c(cccc24)C(=O)N(c2ccccc2)C3=O)c1)c1ccc2c3c(cccc13)C(=O)N(c1ccccc1)C2=O`, the TGI with OVCAR-5 ovarian, in the experiment with TK-10 renal, in the experiment with COLO 205 colon, in the experiment with NCI/ADR-RES ovarian, in the experiment on BT-549 breast and in the experiment on MDA-MB-231 breast was more than 100 µM in each case. The TGI is more than 100 µM in the experiment on SK-OV-3 ovarian; more than 100 µM in the experiment with OVCAR-8 ovarian; more than 100 µM in the experiment on CAKI-1 renal; more than 100 µM in the experiment with 786-0 renal; 69.5 µM in the experiment with A498 renal.

The values above are taken from PubChem BioAssay (NCI).
